Assay: excess molar enthalpy (molar enthalpy of mixing); xn = mol fraction of the nth substance listed
Settings: Liquid

CCCCCO [pentan-1-ol] + COC(=O)OC
Settings	excess molar enthalpy [kcal/mol]
298.15 K, 1000 kPa, x2 = 0.05	0.133
298.15 K, 1000 kPa, x2 = 0.101	0.246
298.15 K, 1000 kPa, x2 = 0.151	0.334
298.15 K, 1000 kPa, x2 = 0.2	0.405
298.15 K, 1000 kPa, x2 = 0.25	0.459
298.15 K, 1000 kPa, x2 = 0.3	0.498
298.15 K, 1000 kPa, x2 = 0.35	0.524
298.15 K, 1000 kPa, x2 = 0.4	0.542
298.15 K, 1000 kPa, x2 = 0.45	0.552
298.15 K, 1000 kPa, x2 = 0.5	0.552
298.15 K, 1000 kPa, x2 = 0.55	0.541
298.15 K, 1000 kPa, x2 = 0.601	0.52
298.15 K, 1000 kPa, x2 = 0.651	0.493
298.15 K, 1000 kPa, x2 = 0.701	0.454
298.15 K, 1000 kPa, x2 = 0.75	0.403
298.15 K, 1000 kPa, x2 = 0.851	0.273
298.15 K, 1000 kPa, x2 = 0.899	0.196
298.15 K, 1000 kPa, x2 = 0.949	0.104
313.15 K, 100 kPa, x2 = 0.05	0.138
313.15 K, 100 kPa, x2 = 0.101	0.259
313.15 K, 100 kPa, x2 = 0.151	0.354
313.15 K, 100 kPa, x2 = 0.2	0.432
313.15 K, 100 kPa, x2 = 0.25	0.494
313.15 K, 100 kPa, x2 = 0.301	0.541
313.15 K, 100 kPa, x2 = 0.351	0.571
313.15 K, 100 kPa, x2 = 0.402	0.593
313.15 K, 100 kPa, x2 = 0.451	0.602
313.15 K, 100 kPa, x2 = 0.501	0.601
313.15 K, 100 kPa, x2 = 0.549	0.59
313.15 K, 100 kPa, x2 = 0.601	0.567
313.15 K, 100 kPa, x2 = 0.648	0.538
313.15 K, 100 kPa, x2 = 0.749	0.446
313.15 K, 100 kPa, x2 = 0.799	0.376
313.15 K, 100 kPa, x2 = 0.851	0.304
313.15 K, 100 kPa, x2 = 0.899	0.207
313.15 K, 100 kPa, x2 = 0.949	0.103
313.15 K, 1000 kPa, x2 = 0.05	0.134
313.15 K, 1000 kPa, x2 = 0.101	0.255
313.15 K, 1000 kPa, x2 = 0.151	0.352
313.15 K, 1000 kPa, x2 = 0.2	0.427
313.15 K, 1000 kPa, x2 = 0.25	0.49
313.15 K, 1000 kPa, x2 = 0.301	0.537
313.15 K, 1000 kPa, x2 = 0.351	0.569
313.15 K, 1000 kPa, x2 = 0.401	0.591
313.15 K, 1000 kPa, x2 = 0.45	0.601
313.15 K, 1000 kPa, x2 = 0.501	0.601
313.15 K, 1000 kPa, x2 = 0.549	0.59
313.15 K, 1000 kPa, x2 = 0.601	0.566
313.15 K, 1000 kPa, x2 = 0.652	0.536
313.15 K, 1000 kPa, x2 = 0.749	0.455
313.15 K, 1000 kPa, x2 = 0.799	0.387
313.15 K, 1000 kPa, x2 = 0.851	0.308
313.15 K, 1000 kPa, x2 = 0.899	0.225
313.15 K, 1000 kPa, x2 = 0.949	0.109
313.15 K, 10000 kPa, x2 = 0.05	0.136
313.15 K, 10000 kPa, x2 = 0.101	0.255
313.15 K, 10000 kPa, x2 = 0.151	0.352
313.15 K, 10000 kPa, x2 = 0.199	0.427
313.15 K, 10000 kPa, x2 = 0.249	0.488
313.15 K, 10000 kPa, x2 = 0.3	0.537
313.15 K, 10000 kPa, x2 = 0.349	0.569
313.15 K, 10000 kPa, x2 = 0.4	0.589
313.15 K, 10000 kPa, x2 = 0.449	0.599
313.15 K, 10000 kPa, x2 = 0.499	0.6
313.15 K, 10000 kPa, x2 = 0.551	0.588
313.15 K, 10000 kPa, x2 = 0.6	0.567
313.15 K, 10000 kPa, x2 = 0.65	0.535
313.15 K, 10000 kPa, x2 = 0.85	0.309
313.15 K, 10000 kPa, x2 = 0.899	0.222
313.15 K, 10000 kPa, x2 = 0.949	0.106
328.15 K, 1000 kPa, x2 = 0.05	0.137
328.15 K, 1000 kPa, x2 = 0.101	0.258
328.15 K, 1000 kPa, x2 = 0.151	0.356
328.15 K, 1000 kPa, x2 = 0.202	0.441
328.15 K, 1000 kPa, x2 = 0.252	0.506
328.15 K, 1000 kPa, x2 = 0.3	0.555
328.15 K, 1000 kPa, x2 = 0.35	0.592
328.15 K, 1000 kPa, x2 = 0.4	0.616
328.15 K, 1000 kPa, x2 = 0.45	0.629
328.15 K, 1000 kPa, x2 = 0.5	0.631
328.15 K, 1000 kPa, x2 = 0.55	0.622
328.15 K, 1000 kPa, x2 = 0.601	0.6
328.15 K, 1000 kPa, x2 = 0.651	0.568
328.15 K, 1000 kPa, x2 = 0.701	0.525
328.15 K, 1000 kPa, x2 = 0.75	0.471
328.15 K, 1000 kPa, x2 = 0.851	0.327
328.15 K, 1000 kPa, x2 = 0.899	0.237
328.15 K, 1000 kPa, x2 = 0.949	0.122

From the NIST ThermoML archive (doi:10.1016/j.jct.2005.07.011)
